Laboratory results as given in patent US20060088882A1, “Methods for the treatment or prevention of obesity” (priority 2002, published 2006).

How the values were obtained:
3T3-F442A preadipocytes = assay: In vitro differentiation of 3T3-F442A preadipocytes (Oil Red O staining); type: cell-based, mouse
Method: FIGS. 5A-5C are pictures of preadipocyte differentiation. FIG. 5A is a transillumination image of differentiated adipocytes in vitro. FIG. 5B is a fluorescence image of differentiated adipocytes in vivo. FIG. 5C is a picture showing the effect of PPARγ inhibition on adipogenesis. Preadipocytes (1×10^5 cells) were plated in a 6-well plate and transfected at a multiplicity of infection of 10^4 plaque forming units/cell using mock- (upper panels) or PPARγ-DN adenovirus (lower panels) and differentiation was promoted by using media containing 10% FBS.
FIG. 7A and 7B illustrate the effect of VEGF on preadipocyte differentiation and proliferation. To investigate the effects of VEGF on the in vitro differentiation of preadipocytes, 3T3-F442A cells were grown to confluence in media supplemented with calf serum (FCS, maintenance media), and exposed to increasing concentrations of murine recombinant VEGF164 (R&D Systems, Minneapolis, Minn.) from 0-100 ng/ml. […] Adipocyte differentiation was assessed by Oil Red O staining.
The bar indicates 50 μm. […] MTT assay was performed at day 4. […] Data are normalized to the control condition (FBS). Error bars represent standard error.
VEGFR2 expression was undetectable in the preadipocytes.

preadipocytes [1] = details: conditioned media from endothelial cells cultured in the presence of VEGF (50 ng/ml); day 11; normalized to SN control
Description: Error bars represent standard error.
The media was changed every other day.

preadipocytes [2] = details: exogenous VEGF added to culture media, doses as high as 100 ng/ml; MTT assay
Method: For proliferation assays, 500 preadipocytes and fibroblasts were plated in 96 well plates, and mouse recombinant VEGF164 (50 ng/ml) and PBS were added (FIG. 7B). An MTT assay was performed at day 4, when the cells were still subconfluent in all wells. Culture media were changed with 100 μl of fresh media, and 10 μl of sterile tetrazolium salt, MTT (3[4,5-dimethylthiazol-2-yl]-2,5-diphenyl-tetrazolium bromide, Sigma) was added in each well and incubated for four hours at 37° C. Finally, 100 μl of 10% SDS were added, and after incubation at 37° C. overnight, the plate was read at 490 nm. The optical density values were normalized to that of the PBS treated cells and used as a measure of viability.
For MTT assays, mouse recombinant VEGF (50 ng/ml) and PBS, and rat IgG (1 μg/ml) were used. MTT assay was performed at day 4. The optical density values were normalized to that of the PBS treated cells and were used as a measure of viability (FIGS. 8B and 8C). MTT assay for preadipocytes after four days of culture with endothelial conditioned media. “FBS” denotes non-conditioned culture media with 10% FBS; “SN” denotes supernatant, endothelial conditioned media cultured with 10% FBS but no other additives; “SN/VEGF/IgG” denotes endothelial conditioned media cultured with 10% FBS, VEGF (50 ng/ml) and non-specific IgG (5 μg/ml). Data are normalized to the control condition (FBS). […]

preadipocytes [3] = details: conditioned media from endothelial cells cultured in the presence of VEGF and IgG; MTT assay
Method: For MTT assays, mouse recombinant VEGF (50 ng/ml) and PBS, and rat IgG (1 μg/ml) were used. MTT assay was performed at day 4. The optical density values were normalized to that of the PBS treated cells and were used as a measure of viability (FIGS. 8B and 8C). MTT assay for preadipocytes after four days of culture with endothelial conditioned media. “FBS” denotes non-conditioned culture media with 10% FBS; “SN” denotes supernatant, endothelial conditioned media cultured with 10% FBS but no other additives; “SN/VEGF/IgG” denotes endothelial conditioned media cultured with 10% FBS, VEGF (50 ng/ml) and non-specific IgG (5 μg/ml). Data are normalized to the control condition (FBS). Error bars represent standard error.
To assess the paracrine effects of VEGF on cell proliferation, preadipocytes were plated as described for FIG. 8B with conditioned media from endothelial cells cultured in the presence of VEGF and IgG. At day 5, the assay was perform as described, and the optical density for the cells cultured in non-conditioned media was used as a measure of viability.

VEGFR1 = VEGFR1 (Homo sapiens, UniProt P17948); details: cited from earlier work
VEGFR2 = VEGFR2 (Homo sapiens, UniProt P35968); details: cited from earlier work
Sequence of VEGFR2 (P35968 20-1356, species assumed): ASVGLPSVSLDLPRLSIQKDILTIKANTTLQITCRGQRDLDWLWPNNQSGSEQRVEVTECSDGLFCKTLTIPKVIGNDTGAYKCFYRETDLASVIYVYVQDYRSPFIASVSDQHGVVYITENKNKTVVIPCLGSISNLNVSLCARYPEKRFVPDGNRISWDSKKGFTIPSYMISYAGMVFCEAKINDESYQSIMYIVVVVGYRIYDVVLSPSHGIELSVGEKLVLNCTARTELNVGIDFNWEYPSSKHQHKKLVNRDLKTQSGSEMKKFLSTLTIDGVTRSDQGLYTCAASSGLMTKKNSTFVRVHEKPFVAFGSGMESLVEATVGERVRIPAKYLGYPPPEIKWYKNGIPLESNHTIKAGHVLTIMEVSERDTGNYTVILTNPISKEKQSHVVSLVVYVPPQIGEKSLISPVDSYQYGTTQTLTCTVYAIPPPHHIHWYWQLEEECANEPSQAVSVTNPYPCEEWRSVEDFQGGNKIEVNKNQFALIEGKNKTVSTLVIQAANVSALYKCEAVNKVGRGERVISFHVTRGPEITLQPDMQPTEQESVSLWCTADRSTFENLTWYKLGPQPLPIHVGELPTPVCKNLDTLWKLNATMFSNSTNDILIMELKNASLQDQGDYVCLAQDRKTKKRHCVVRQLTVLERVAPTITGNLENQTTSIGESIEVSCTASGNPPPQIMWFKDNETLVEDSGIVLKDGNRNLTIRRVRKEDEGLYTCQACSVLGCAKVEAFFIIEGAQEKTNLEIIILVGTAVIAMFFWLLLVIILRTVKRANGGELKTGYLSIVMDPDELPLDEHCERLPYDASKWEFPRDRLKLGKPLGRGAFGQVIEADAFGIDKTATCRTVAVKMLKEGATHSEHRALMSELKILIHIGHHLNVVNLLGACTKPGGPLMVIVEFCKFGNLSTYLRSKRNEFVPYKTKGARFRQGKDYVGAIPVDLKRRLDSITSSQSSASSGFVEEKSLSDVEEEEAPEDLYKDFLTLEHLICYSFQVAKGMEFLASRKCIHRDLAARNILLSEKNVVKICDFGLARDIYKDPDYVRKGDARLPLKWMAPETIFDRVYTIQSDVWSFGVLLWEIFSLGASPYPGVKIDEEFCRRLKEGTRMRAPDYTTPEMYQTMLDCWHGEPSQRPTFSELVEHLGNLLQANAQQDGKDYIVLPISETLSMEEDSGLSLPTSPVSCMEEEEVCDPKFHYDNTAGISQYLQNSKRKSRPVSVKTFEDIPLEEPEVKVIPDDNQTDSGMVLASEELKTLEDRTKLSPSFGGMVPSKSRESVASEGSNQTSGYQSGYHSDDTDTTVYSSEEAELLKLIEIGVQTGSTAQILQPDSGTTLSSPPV

Sequence of VEGFR1 (P17948 27-1338, species assumed): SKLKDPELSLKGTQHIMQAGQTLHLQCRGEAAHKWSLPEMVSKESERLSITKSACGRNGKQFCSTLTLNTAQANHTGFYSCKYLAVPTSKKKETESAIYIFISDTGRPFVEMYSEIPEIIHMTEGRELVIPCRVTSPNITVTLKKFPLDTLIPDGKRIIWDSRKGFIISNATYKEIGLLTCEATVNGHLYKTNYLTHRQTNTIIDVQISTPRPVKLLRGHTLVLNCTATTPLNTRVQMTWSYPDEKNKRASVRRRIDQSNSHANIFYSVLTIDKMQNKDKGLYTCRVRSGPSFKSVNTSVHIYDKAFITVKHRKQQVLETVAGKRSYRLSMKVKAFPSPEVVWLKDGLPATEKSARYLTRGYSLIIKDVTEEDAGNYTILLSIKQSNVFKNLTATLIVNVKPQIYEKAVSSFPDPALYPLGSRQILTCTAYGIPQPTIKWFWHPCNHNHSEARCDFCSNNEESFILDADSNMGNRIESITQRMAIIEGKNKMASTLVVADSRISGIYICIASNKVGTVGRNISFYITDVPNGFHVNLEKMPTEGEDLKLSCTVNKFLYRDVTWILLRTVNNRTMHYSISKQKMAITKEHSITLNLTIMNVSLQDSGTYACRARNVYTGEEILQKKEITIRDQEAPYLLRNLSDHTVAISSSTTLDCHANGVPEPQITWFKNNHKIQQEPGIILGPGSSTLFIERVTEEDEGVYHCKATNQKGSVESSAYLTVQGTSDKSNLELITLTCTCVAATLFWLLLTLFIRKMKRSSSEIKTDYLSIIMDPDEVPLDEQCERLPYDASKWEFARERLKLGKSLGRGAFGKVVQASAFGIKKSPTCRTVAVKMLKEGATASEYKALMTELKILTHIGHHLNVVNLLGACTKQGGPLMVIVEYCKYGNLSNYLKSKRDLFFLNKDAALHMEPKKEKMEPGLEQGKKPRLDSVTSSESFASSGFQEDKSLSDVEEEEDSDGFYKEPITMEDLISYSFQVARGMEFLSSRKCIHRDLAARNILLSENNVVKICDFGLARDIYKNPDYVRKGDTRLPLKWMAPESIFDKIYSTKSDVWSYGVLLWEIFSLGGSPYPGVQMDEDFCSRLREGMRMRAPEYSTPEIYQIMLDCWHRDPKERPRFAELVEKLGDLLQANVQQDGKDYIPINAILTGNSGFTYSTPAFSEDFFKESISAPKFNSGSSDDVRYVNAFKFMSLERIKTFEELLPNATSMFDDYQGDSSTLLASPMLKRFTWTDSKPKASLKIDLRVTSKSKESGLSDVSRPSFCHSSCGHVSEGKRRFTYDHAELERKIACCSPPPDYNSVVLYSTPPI

VEGF
differentiation rate of preadipocytes (3T3-F442A preadipocytes; differentiation media (10% FBS), VEGF 0-100 ng/ml or 50 ng/ml, Oil Red O staining): did not increase the differentiation rate
adipose cell differentiation in vitro (3T3-F442A preadipocytes; exogenous VEGF added to culture media, doses as high as 100 ng/ml): not significantly affected
induction of differentiation in preadipocytes (3T3-F442A preadipocytes; maintenance media (10% calf serum), VEGF 0-100 ng/ml or 50 ng/ml, Oil Red O staining): did not induce differentiation
aP2 expression (differentiation of preadipocytes) (preadipocytes [1]): almost three-fold increase
adipose cell proliferation and survival in vitro (preadipocytes [2]): not significantly affected
preadipocyte survival/proliferation (preadipocytes [3]): increased preadipocyte survival/proliferation

CCCNC(=O)Nc1ccc(Oc2ncnc3cc(OC)c(OC)cc23)cc1Cl [KRN633]
inhibition of VEGFR1 (VEGFR1): inhibits
inhibition of VEGFR2 (VEGFR2): inhibits
